Experimental findings from ChEMBL document CHEMBL1201862, “PubChem BioAssay data set” (2004) are described below.

Several values for one entry are separate records, joined by “and”; a condition that tells them apart may be missing. Equal values may be shown once. Where a name gives a salt, the structure may show the parent alone.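 How tested: cells in 96-well plates exposed to compound for 48 hours at five concentrations. The concentration for 50% growth inhibition is given as GI50.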 Activity calls are given as the source filed them. Rule as the data show it: active = GI50 up to about 1.1 µM and inactive = higher. A value given as a limit tells only on which side of the number the result lay.

Test systems include UO-31; SK-MEL-2; COLO 205; ACHN; M14; UACC-62; SK-OV-3; SF-295; HT-29; A498; A549; TK-10; SK-MEL-5; IGROV-1; SNB-19; NCI-H460; HL-60; KM-20L2; SNB-78; HOP-18.
Holding throughout (assay): growth of human tumour cells (NCI), 48 h

With `O=C1Nc2ccc(S(=O)(=O)N(CCO)CCO)cc2/C1=C1/Nc2ccccc2C1=O`, the GI50 in the assay on UO-31 was > 100 µM (inactive); in the assay with SK-MEL-2, > 100 µM (inactive); in the assay with COLO 205 it was 8.05 µM (inactive); in the assay with ACHN, > 100 µM (inactive); with M14, > 100 µM (inactive); in the assay with UACC-62, > 100 µM (inactive). The GI50 in the assay on SK-OV-3, in the assay with SF-295, with HT-29, in the assay with A498, with A549 and in the assay on TK-10 was > 100 µM (inactive) in each case. Moreover, the GI50 was > 100 µM (inactive) in the assay on SK-MEL-5, 2.5 µM (inactive) with IGROV-1, > 100 µM (inactive) with SNB-19 and > 100 µM (inactive) with NCI-H460.

As for `O=C1C[C@H](c2ccccc2)C2(C(=O)c3ccccc3C2=O)[C@@H](c2ccccc2)C1`, the GI50 in the assay on UO-31 is 33.3 µM (inactive); in the assay with SK-MEL-2, 12.8 µM (inactive); in the assay with HL-60, 73.1 µM (inactive); with COLO 205 it was 18.4 µM (inactive); in the assay on M14, 6.24 µM (inactive); with UACC-62, 11.8 µM (inactive). For the same compound, the GI50 in the assay with SK-OV-3 is 21.2 µM (inactive); in the assay with SF-295, 25.6 µM (inactive); with HT-29, 26.4 µM (inactive); in the assay with A498, 7.64 µM (inactive); with SK-MEL-5, 16.9 µM (inactive); with IGROV-1, 16.3 µM (inactive). The values for the GI50 in the assay on SNB-19 and in the assay on NCI-H460 were 23.9 µM (inactive) and 25.8 µM (inactive), respectively.

As to `CC1OC(OC2C(OC(=O)[C@@H]3CC(C)(C)C[C@H]4C5=CC[C@@H]6[C@@]7(C)C[C@H](O)[C@H](OC8OC(CO)C(O)C(O)C8O)[C@@](C)(CO)[C@@H]7[C@H](O)C[C@@]6(C)[C@]5(C)CC[C@@]34C)OCC(O)C2O)C(O)C(O)C1O` (some centres not stated), the GI50 with UO-31, with SK-MEL-2, in the assay with HL-60, in the assay on COLO 205, with ACHN and in the assay on M14 was > 7.5 µM (inactive) in each case. The GI50 with UACC-62, with SK-OV-3, in the assay with SF-295, in the assay with HT-29, in the assay on TK-10 and in the assay with SK-MEL-5 was > 7.5 µM (inactive) throughout. For the same compound, the GI50 in the assay on IGROV-1, with SNB-19 and in the assay on NCI-H460 was > 7.5 µM (inactive) each time.

With `CN(C)CCN(/C(=N/c1ccccc1)N1CCCC1)c1ccccc1`, the GI50 is 21.9 µM (inactive) with UO-31; > 100 µM (inactive) in the assay with SK-MEL-2; 11.6 µM (inactive) in the assay on HL-60; 16.9 µM (inactive) in the assay on COLO 205; > 100 µM (inactive) in the assay on ACHN; 43.7 µM (inactive) in the assay on M14. In addition, the GI50 in the assay with UACC-62 is 11.9 µM (inactive); with SK-OV-3, > 100 µM (inactive); with SF-295, 18.4 µM (inactive); in the assay with HT-29, 5.01 µM (inactive); with A549, 58.3 µM (inactive); with TK-10 it was > 100 µM (inactive). In addition, the GI50 in the assay with SK-MEL-5 was 30.2 µM (inactive); in the assay with IGROV-1, 13.7 µM (inactive); in the assay on SNB-19 it was > 100 µM (inactive); in the assay on NCI-H460, 42.4 µM (inactive).

On to `CC1CC2C3CC(F)C4=CC(=O)C=CC4(C)C3(F)C(O)CC2(C)C1(O)C(=O)COC(=O)C(C)(C)C` (configuration not stated), for which the GI50 in the assay with UO-31 is > 100 µM (inactive); in the assay with SK-MEL-2 it was > 100 µM (inactive); with HL-60 it was > 100 µM (inactive); in the assay on COLO 205, > 100 µM (inactive); with ACHN, 32.7 µM (inactive); with M14 it was > 100 µM (inactive). Also, the GI50 with UACC-62 is > 100 µM (inactive); in the assay with SF-295, 61.7 µM (inactive); in the assay with KM-20L2, > 100 µM (inactive); in the assay with HT-29, > 100 µM (inactive); in the assay on SNB-78 it was 27.5 µM (inactive); in the assay with A549, 54.6 µM (inactive). In addition, the GI50 with TK-10 was 77.1 µM (inactive); with SK-MEL-5, > 100 µM (inactive); in the assay with IGROV-1, 64.1 µM (inactive); with SNB-19, 64.3 µM (inactive); in the assay with NCI-H460 it was 47 µM (inactive).

As to `CC(=O)N/C(=C\c1ccc(/C=C(\NC(C)=O)C2=NC3C(=O)c4ccccc4C(=O)C3N2)cc1)C1=NC2C(=O)c3ccccc3C(=O)C2N1` (configuration not stated), the GI50 is 2.97 µM (inactive) with UO-31; 3.96 µM (inactive) with HL-60; 93.1 µM (inactive) with COLO 205; 4.1 µM (inactive) in the assay on ACHN; 49.8 µM (inactive) in the assay on M14; 25.8 µM (inactive) in the assay with UACC-62. Also, the GI50 in the assay on SK-OV-3 was 6.53 µM (inactive); in the assay on SF-295, 68.2 µM (inactive); with KM-20L2 it was 39.7 µM (inactive); in the assay with HT-29, > 100 µM (inactive); in the assay on A498 it was 5.57 µM (inactive); in the assay with HOP-18 it was 71.3 µM (inactive). Moreover, the GI50 was 70.3 µM (inactive) in the assay on SNB-78; 2.34 µM (inactive) in the assay on A549; 12.1 µM (inactive) in the assay on TK-10; 3.4 µM (inactive) in the assay with SK-MEL-5; 8.47 µM (inactive) in the assay with IGROV-1; 19 µM (inactive) with SNB-19. Also, in the assay with NCI-H460, the GI50 is 12.8 µM (inactive).

Turning to `O=C(/C=C/c1ccc(Cl)c(Cl)c1)C1CCC(Cl)CC1` (configuration not stated), the GI50 in the assay on UO-31 is 18.4 µM (inactive); in the assay with COLO 205, 21.8 µM (inactive); in the assay with ACHN, 17.1 µM (inactive); in the assay with M14, 18.5 µM (inactive); with UACC-62, 17 µM (inactive); in the assay with SK-OV-3, 18.1 µM (inactive). Further, the GI50 is 21 µM (inactive) in the assay with SF-295; 20.7 µM (inactive) in the assay with KM-20L2; 16.3 µM (inactive) in the assay on HT-29; 22.4 µM (inactive) with A498; 27.5 µM (inactive) in the assay with HOP-18; 21.9 µM (inactive) in the assay with SNB-78. In addition, the GI50 is 20 µM (inactive) in the assay on A549; 32.7 µM (inactive) in the assay with TK-10; 18.3 µM (inactive) in the assay on SK-MEL-5; 17.1 µM (inactive) in the assay with IGROV-1; 17.7 µM (inactive) in the assay with SNB-19; 23.2 µM (inactive) with NCI-H460.

In the case of `Nc1c(Cl)c([N+](=O)[O-])cc2c1OCCCCO2`, the GI50 in the assay on UO-31, in the assay on SK-MEL-2, with HL-60, with COLO 205, with ACHN and in the assay on M14 was > 100 µM (inactive) throughout. The GI50 is 95.5 µM (inactive) in the assay on UACC-62; 18.3 µM (inactive) with SK-OV-3; > 100 µM (inactive) in the assay on SF-295; > 100 µM (inactive) with HT-29; > 100 µM (inactive) with A549; > 100 µM (inactive) in the assay on TK-10. Besides, the GI50 in the assay on SK-MEL-5 was 44.9 µM (inactive); with IGROV-1, 40.5 µM (inactive); in the assay on SNB-19, > 10 µM (inactive); in the assay on NCI-H460, > 100 µM (inactive).

Consider `CCC1C[N+]23CCc4c([nH]c5ccccc45)C2CC1CC3` (configuration not stated), for which the GI50 was 41.4 µM (inactive) in the assay with UO-31; > 100 µM (inactive) in the assay with SK-MEL-2; 98.4 µM (inactive) in the assay on COLO 205; > 100 µM (inactive) with ACHN; > 100 µM (inactive) in the assay with M14; > 100 µM (inactive) with UACC-62. In addition, the GI50 in the assay on SK-OV-3 was > 100 µM (inactive); in the assay with SF-295, > 100 µM (inactive); with KM-20L2, 97.1 µM (inactive); with HT-29, > 100 µM (inactive); with TK-10, 74.3 µM (inactive); with SK-MEL-5, 22.4 µM (inactive). Further, the figures for the GI50 with IGROV-1 and in the assay on NCI-H460 were 91.6 µM (inactive) and 49.4 µM (inactive), respectively.

On to `Cc1cc(NS(=O)(=O)c2ccc(Nc3c4ccccc4nc4c(C(=O)N5CCN(CCO)CC5)ccc(Cl)c34)cc2)no1`, for which the GI50 in the assay with UO-31 is > 100 µM (inactive); in the assay with SK-MEL-2, 42.1 µM (inactive); in the assay with HL-60, 60.3 µM (inactive); in the assay with COLO 205, > 100 µM (inactive); in the assay on M14 it was > 100 µM (inactive); with UACC-62 it was 42.5 µM (inactive). For the same compound, the GI50 in the assay with SK-OV-3, in the assay with SF-295, in the assay on KM-20L2, in the assay with HT-29, in the assay with A498 and with A549 was > 100 µM (inactive) each time. In addition, the GI50 in the assay with TK-10 was > 100 µM (inactive); in the assay with SK-MEL-5 it was 36.3 µM (inactive); in the assay on IGROV-1, 96.2 µM (inactive); in the assay on SNB-19, > 100 µM (inactive); in the assay on NCI-H460, > 100 µM (inactive).

For `O=C1/C(=C/c2ccc(Cl)cc2)CNC/C1=C\c1ccc(Cl)cc1`, the GI50 was 2.14 µM (inactive) in the assay with COLO 205; 3.28 µM (inactive) in the assay on ACHN; 3.71 µM (inactive) with M14; 2.43 µM (inactive) with UACC-62; 12.1 µM (inactive) with SK-OV-3; 4.65 µM (inactive) in the assay on A498. In addition, the GI50 was 4.76 µM (inactive) with A549; 3.95 µM (inactive) in the assay with TK-10; 4.44 µM (inactive) in the assay on SK-MEL-5; 1.58 µM (inactive) in the assay with IGROV-1; 1.82 µM (inactive) in the assay on SNB-19; 1.35 µM (inactive) with NCI-H460.

`Nc1ccc2cc3ccc(N)cc3nc2c1` [PROFLAVINE SULFATE]: the GI50 was 690 nM (active) and 652 nM (active) with UO-31; 2.62 µM (inactive) and 1.67 µM (inactive) with HL-60; 561 nM (active) and 543 nM (active) in the assay with COLO 205; 789 nM (active) and 537 nM (active) with ACHN; 1.56 µM (inactive) and 1.6 µM (inactive) in the assay on UACC-62; 2.45 µM (inactive) and 1.94 µM (inactive) in the assay on SF-295. Besides, the GI50 is 0.767 µM (active) with KM-20L2; 953 nM (active) and 668 nM (active) in the assay with HT-29; 2.76 µM (inactive) in the assay on HOP-18; 1.12 µM (active) in the assay with SNB-78; 2.7 µM (inactive) and 4.33 µM (inactive) in the assay with TK-10; 1.61 µM (inactive) and 1.38 µM (inactive) with SK-MEL-5. Also, the GI50 in the assay on NCI-H460 is 528 nM (active) and 485 nM (active).
